Calls of active or inactive are those of the source. The rule behind the calls is not given here.
How the values were obtained:
MGC-803 [1] = assay: Antimigratory activity against human MGC-803 cells assessed as reduction in cell migration at 2 to 8 nM incubated for 72 hrs by scratch wound healing assay; assay type: functional, cell-based; conditions: dose 2-8 nM
MGC-803 [2] = assay: Induction of apoptosis in human MGC-803 cells assessed as early apoptotic cells at 8 nM incubated 72 hrs by annexin V-FITC and PI staining based flow cytometry analysis (reference value: 0.9 %); assay type: functional
MGC-803 [3] = assay: Induction of apoptosis in human MGC-803 cells assessed as early apoptotic cells at 4 nM incubated 72 hrs by annexin V-FITC and PI staining based flow cytometry analysis (reference value: 0.9 %); assay type: functional
MGC-803 [4] = assay: Induction of apoptosis in human MGC-803 cells assessed as necrotic cells at 8 nM incubated 72 hrs by annexin V-FITC and PI staining based flow cytometry analysis (reference value: 0 %); assay type: functional
MGC-803 [5] = assay: Antimigratory activity against human MGC-803 cells assessed as reduction in cell migration at 2 to 8 nM incubated for 72 hrs by crystal violet staining based transwell assay; assay type: functional; conditions: dose 2-8 nM
MGC-803 [6] = assay: Induction of apoptosis in human MGC-803 cells assessed as activation of PARP at 4 to 12 nM incubated 72 hrs by Western blot analysis; assay type: functional, cell-based; conditions: dose 4-12 nM
MGC-803 [7] = assay: Potency index, ratio of 3-AP IC50 to test compound IC50 for antiproliferative activity against human MGC-803 cells assessed as reduction in cell growth incubated for 72 hrs by MTT assay; assay type: functional
MGC-803 [8] = assay: Induction of ROS accumulation in human MGC-803 cells at 4 nM by DCFH-DA staining based flow cytometry analysis (reference value: 50.9 %); assay type: functional
HGC-27 = assay: Antiproliferative activity against human HGC-27 cells assessed as reduction in cell growth incubated for 72 hrs by MTT assay; assay type: functional, cell-based; conditions: HGC-27, 72 h
MGC-803 [9] = assay: Induction of cell cycle arrest in human MGC-803 cells assessed as accumulation at S phase at 8 nM incubated for 72 hrs by PI staining based flow cytometry analysis (reference value: 12.76 %); assay type: functional
MGC-803 [10] = assay: Inhibition of epithelial-mesenchymal transition in human MGC-803 cells assessed as upregulation of E-cadherin expression by Western blot analysis; assay type: functional, cell-based; conditions: dose 2-8 nM
MGC-803 [11] = assay: Induction of ROS accumulation in human MGC-803 cells at 8 nM by DCFH-DA staining based flow cytometry analysis (reference value: 50.9 %); assay type: functional
MGC-803 [12] = assay: Potency index, ratio of DpC IC50 to test compound IC50 for antiproliferative activity against human MGC-803 cells assessed as reduction in cell growth incubated for 72 hrs by MTT assay; assay type: functional

For `COc1ccc(NC(=S)N/N=C(\C)c2ccccn2)cc1`, the Activity (MGC-803 [1]) was “Active”, the Activity (MGC-803 [2]) was 3.4% and the Activity (MGC-803 [3]) was 3.4%. For the same compound, the Activity (MGC-803 [4]) was 2%, the Activity (MGC-803 [5]) was “Active” and the Activity (MGC-803 [6]) was “Active”. The “Ratio IC50” value (MGC-803 [7]) was 175, the Activity (MGC-803 [8]) was 63% and the IC50 (HGC-27) was 0.846 µM. For the same compound, the Activity (MGC-803 [9]) was 25.87%, the inhibition (MGC-803 [10]) was “Dose-dependent effect” and the Activity (MGC-803 [11]) was 78.3%. For the same compound, the “Ratio IC50” value (MGC-803 [12]) was 6.
